Results published in patent publication US8518373B2, “Ionic and non-ionic radiographic contrast agents for use in combined X-ray and nuclear magnetic resonance diagnostics” (priority 2001, dated 2013).
Like-named read-outs stand apart in the source and are kept apart here.

What was measured:
[1] = cited from earlier work
[2] = Z-spectra and Saturation transfer (ST) profiles of aqueous solutions in MT imaging; details: 7 T, pH 7.4, 312 K, 30 mM (Gd-DTPA 1 mM)
Protocol: The Magnetization Transfer or, more precisely, the amount of saturation transfer (ST) registered in a MT based MRI procedure following irradiation of the mobile proton(s), is conveniently quantified as ST % according to the following equation (2) ST %=100×(1−Ms/M0) (2)
In a first series, tests were conducted at physiological pH and temperature. A second series of tests were conducted at acidic pH.
In the first series of tests, Z-spectra and corresponding Saturation transfer (ST) profiles were measured at 7 T, pH 7.4 and 312 K, for aqueous solutions of iopamidol (30 mM), L-amino acids alanine, glutamine and lysine (each 30 mM), Gd-DTPA (1 mM) and Iopamidol (30 mM).

[3] = cited from earlier work; remark: listed apart in the source
[4] = residual water signal after irradiating the amido proton signal, effect of temperature, 200 mM Iopamidol; details: pH 6.74, 2.1 T, irradiation at 9.4 ppm, attenuation 300 dB
Protocol: A 200 mM Iopamidol solution at pH=6.74 was investigated at 2.1 T magnetic field intensity (JEOL EX-90 spectrometer). After irradiating the amido proton signal at 9.4 ppm, with attenuation of 300 dB, the area under the water signal was measured. Considering 100 the area of the water signal with irradiation at −9.4 ppm, a drastic reduction is observed following irradiation of the amido protons. The effect increases as temperature increase so that: […]

[5] = residual water signal after irradiating the amido protons, effect of radiofrequency field intensity, 200 mM Iopamidol; details: for % residual signal: 200 mM, pH 6.29, 2.1 T, 39° C., rf field at 9.4 ppm
Protocol: A 200 Mm Iopamidol solution at pH=6.29 was investigated at 2.1 T magnetic field intensity and at a temperature of 39° C. (JEOL EX-90 spectrometer). Considering 100 the area of the water signal with irradiation at −9.4 ppm, its decrease (expressed as % residual signal) was evaluated in the presence of a rf field tuned at 9.4 ppm (signal of the amido protons).

[6] = rabbit, in vivo, cited from earlier work
[7] = dog, in vivo; cited from earlier work

## N=C(N)NCCC[C@H](N)C(=O)O [L-Arginine]
[1]; mouse, in vivo, iv
  LD50 intravenous mouse: 2030 mg/kg

## NCCCC[C@H](N)C(=O)O [L-lysine]
[2]
  Saturation Transfer Value pH = 7.4: 0
[2]; listed as lysine
  Saturation Transfer Value pH = 7.4: failed to provide any detectable signals

## Iopromide
[1]; mice, i.v.
  LD50 in mice: 16.5 g iodine/kg body weight
[3]; rats, i.v.
  LD50 in rats: 11.4 g iodine/kg body weight

## CC(=O)Nc1c(I)c(C(=O)N[C@H]2C(O)O[C@H](CO)[C@@H](O)[C@@H]2O)c(I)c(N(C)C(C)=O)c1I (stereo partly drawn) [Metrizamide]
[1]; i.v., mice (Aspelin)
  LD50 i.v. in mice: 17300 mg/kg
[1]; i.v., mice (Salvenson)
  LD50 i.v. in mice: 18600 mg/kg
[1]; i.v., mice (Sovak)
  LD50 i.v. in mice: 11500 mg/kg
[1]; i.v., mice (Torsten)
  LD50 i.v. in mice: 15000 mg/kg

## O=C1CC(=O)NC(=O)N1 [Barbituric Acid]
[3]; oral, male rats
  LD50 orally in male rats: > 5000 mg/kg

## Cc1cn([C@H]2C[C@H](O)[C@@H](CO)O2)c(=O)[nH]c1=O [Thymidine]
[1]; mouse, in vivo, ip
  LD50 intraperitoneal mouse: 2512 mg/kg

## C[C@H](O)C(=O)Nc1c(I)c(C(=O)NC(CO)CO)c(I)c(C(=O)NC(CO)CO)c1I [Iopamidol]
[4]; 15° C.
  % residual signal: 39%
[4]; 25° C.
  % residual signal: 30%
[4]; 39° C.
  % residual signal: 24%
[5]; 2.1 T magnetic field
  reduction of the signal from water in MRI saturation transfer: 80%
[5]; attenuation 300 dB
  % residual signal: 15%
[5]; attenuation 400 dB
  % residual signal: 40%
[1]; mouse, in vivo
  LD50 in mice: 44.5 g/kg
[6]
  LD50 in rabbits: 19600 mg/kg
[7]
  LD50 in dogs: 34700 mg/kg
[3]; rat, in vivo
  LD50 in rats: 28.2 g/kg

## C[C@H](N)C(=O)O [L-alanine]
[2]
  Saturation Transfer Value pH = 7.4: 0
[2]; listed as alanine
  Saturation Transfer Value pH = 7.4: failed to provide any detectable signals

## O=C(O)C1CCCCN1 (stereo not drawn) [Pipecolinic. Acid]
[1]; intravenous, mouse
  LD50 intravenous mouse: 2200 mg/kg

## O=C1NCCN1 [2-Imidazolidinone]
[1]; intraperitoneal, mouse
  LD50 intraperitoneal mouse: 500 mg/kg

## CC(=O)Nc1c(I)c(NC(C)=O)c(I)c(C(=O)[O-])c1I.[Na+] [Sodium diatrizoate]
[3]; i.v., rats (Langecker)
  LD50 i.v. in rats: 14700 mg/kg

## N=C(N)N [Guanidine]
[6]; po
  LD orally in rabbits: 500 mg/kg
